Here are results for eight compounds from patent publication US9346815B2, “5-chloro-2-difluoromethoxyphenyl pyrazolopyrimidine compounds, compositions and methods of use thereof” (Genentech, Inc., priority 2014, dated 2016).

Assay [1] deals with JAK1-dependent STAT6 phosphorylation downstream of IL-13 stimulation in TF-1 human erythroleukemia cells. In words: JAK1 pathway assay in TF-1 cells (IL-13-pSTAT6, MSD). Format: cell-based. As to conditions: Homo sapiens, TF-1, TF-1 cells, read-out: IL13-pSTAT6 EC50_TF-1. The gist of the method: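 Cells were preincubated with compounds (0.2% DMSO) for 30 min (TF-1, GM-CSF-starved overnight, serum-free OptiMEM, 300,000 cells/well) or 1 h (BEAS-2B, complete medium, 100,000 cells/well) at 37 °C.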

Assay [2] concerns the target isolated recombinant JAK2 kinase domain (Homo sapiens (Human), UniProt O60674). Put plainly: JAK2 enzyme assay (Caliper LabChip, peptide phosphorylation). Format: biochemical. The settings on record: 25 μM ATP.
Assay [3] concerns the target isolated recombinant JAK1 kinase domain (Homo sapiens (Human), UniProt P23458). Put plainly: JAK1 enzyme assay (Caliper LabChip, peptide phosphorylation). The assay is classed as biochemical. The settings on record: isolated recombinant JAK1 kinase domain, 25 μM ATP.

Chain of isolated recombinant JAK2 kinase domain (O60674 849-1124): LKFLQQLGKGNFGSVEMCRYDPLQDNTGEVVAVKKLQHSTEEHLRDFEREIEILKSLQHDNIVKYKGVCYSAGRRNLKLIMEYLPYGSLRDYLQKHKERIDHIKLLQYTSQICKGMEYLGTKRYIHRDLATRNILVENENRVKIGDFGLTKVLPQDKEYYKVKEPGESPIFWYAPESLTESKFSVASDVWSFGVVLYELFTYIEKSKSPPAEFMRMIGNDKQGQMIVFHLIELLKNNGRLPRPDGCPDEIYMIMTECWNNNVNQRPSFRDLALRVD
Chain of isolated recombinant JAK1 kinase domain (P23458 875-1153): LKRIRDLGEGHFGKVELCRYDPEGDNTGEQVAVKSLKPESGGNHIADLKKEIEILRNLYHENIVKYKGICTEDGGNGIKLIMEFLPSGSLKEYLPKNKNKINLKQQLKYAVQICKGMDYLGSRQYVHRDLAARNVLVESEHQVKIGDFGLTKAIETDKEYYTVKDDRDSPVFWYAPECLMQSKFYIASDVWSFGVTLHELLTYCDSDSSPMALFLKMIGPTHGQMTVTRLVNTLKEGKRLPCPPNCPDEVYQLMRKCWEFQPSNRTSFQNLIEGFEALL

As a reminder, the Ki is a measure of affinity in units of concentration, obtained from inhibition or displacement. Take `CN1CCC2(C1)CN(C(=O)Cn1cc(NC(=O)c3cnn4cccnc34)c(-c3cc(Cl)ccc3OC(F)F)n1)C2` [Example 211, Pyrazolo[1,5-a]pyrimidine-3-carboxylic acid {3-(5-chloro-2-difluoromethoxyphenyl)-1-[2-(6-methyl-2,6-diazaspiro[3.4]oct-2-yl)-2-oxoethyl]-1H-pyrazol-4-yl}amide]: in assay [1], the EC50 was 20.9 nM. In addition, the Ki in assay [2] is 1.38 nM; in assay [3] it was 1.1 nM.

As to `CN1CC[C@@H]2CN(C(=O)Cn3cc(NC(=O)c4cnn5cccnc45)c(-c4cc(Cl)ccc4OC(F)F)n3)CC[C@@H]21` [Example 41, N-[1-[2-[(3aR,7aS)-1-methyl-3,3a,4,6,7,7a-hexahydro-2H-pyrrolo[3,2-c]pyridin-5-yl]-2-oxo-ethyl]-3-[5-chloro-2-(difluoromethoxy)phenyl]pyrazol-4-yl]pyrazolo[1,5-a]pyrimidine-3-carboxamide], in assay [1], the EC50 came out at 8 nM. Moreover, the figures for the inhibition constant (Ki) in assay [2] and in assay [3] were 1.47 nM and 0.91 nM, respectively.

On to `CCCCN(CCOc1ccc(C)cc1)C1CCN(C(=O)Cn2cc(NC(=O)c3cnn4cccnc34)c(-c3cc(Cl)ccc3OC(F)F)n2)CC1` [Example 108, N-[1-[2-[4-[butyl-[2-(4-methylphenoxy)ethyl]amino]-1-piperidyl]-2-oxo-ethyl]-3-[5-chloro-2-(difluoromethoxy)phenyl]pyrazol-4-yl]pyrazolo[1,5-a]pyrimidine-3-carboxamide], for which the EC50 in assay [1] came to 43.1 nM. Further, the inhibition constant Ki in assay [2] was 3.66 nM; in assay [3] it was 2.47 nM.

Take `COCCN(C)C1CCN(C(=O)Cn2cc(NC(=O)c3c(N)nn4cccnc34)c(-c3cc(Cl)ccc3OC(F)F)n2)CC1` [Example 141, 2-amino-N-[3-[5-chloro-2-(difluoromethoxy)phenyl]-1-[2-[4-[2-methoxy-ethyl(methyl)amino]-1-piperidyl]-2-oxo-ethyl]pyrazol-4-yl]pyrazolo[1,5-a]pyrimidine-3-carboxamide]: the EC50 in assay [1] was 15 nM. Also, the figures for the inhibition constant (Ki) in assay [2] and in assay [3] were 0.59 nM and 0.68 nM, respectively.

Turning to `O=C(Nc1cn(CC(=O)N2C[C@H]3CN(CCCOC(=O)C4CCC4)C[C@H]3C2)nc1-c1cc(Cl)ccc1OC(F)F)c1cnn2cccnc12` [Example 55, 3-[(3aS,6aR)-5-[2-[3-[5-chloro-2-(difluoromethoxy)phenyl]-4-(pyrazolo[1,5-a]pyrimidine-3-carbonylamino)pyrazol-1-yl]acetyl]-1,3,3a,4,6,6a-hexahydropyrrolo[3,4-c]pyrrol-2-yl]propyl cyclobutanecarboxylate], the EC50 in assay [1] was found to be 21 nM. Also, the inhibition constant Ki in assay [2] was determined as 0.72 nM; in assay [3], 0.85 nM.

In the case of `CN1CCC2CN(C(=O)Cn3cc(NC(=O)c4cnn5cccnc45)c(-c4cc(Cl)ccc4OC(F)F)n3)CCC21` (stereo not drawn) [Example 29, N-[3-[5-chloro-2-(difluoromethoxy)phenyl]-1-[2-(1-methyl-3,3a,4,6,7,7a-hexahydro-2H-pyrrolo[3,2-c]pyridin-5-yl)-2-oxo-ethyl]pyrazol-4-yl]pyrazolo[1,5-a]pyrimidine-3-carboxamide], in assay [1], the EC50 stood at 5.6 nM. The results for the Ki in assay [2] and in assay [3] were 1.76 nM and 1.01 nM, respectively.

`CN(C)C1CCN(C(=O)Cn2cc(NC(=O)c3cnn4cccnc34)c(-c3cc(Cl)ccc3OC(F)F)n2)C1` (stereo not drawn) [Example 65, N-[3-[5-chloro-2-(difluoromethoxy)phenyl]-1-[2-[3-(dimethylamino)pyrrolidin-1-yl]-2-oxo-ethyl]pyrazol-4-yl]pyrazolo[1,5-a]pyrimidine-3-carboxamide]: the EC50 in assay [1] stood at 9.4 nM. In addition, the inhibitory constant (Ki) in assay [2] was 0.69 nM; in assay [3] it was 0.54 nM.

For `CN(C)C[C@@H]1CCCN(C(=O)Cn2cc(NC(=O)c3c(N)nn4cccnc34)c(-c3cc(Cl)ccc3OC(F)F)n2)C1` [Example 82, 2-amino-N-[3-[5-chloro-2-(difluoromethoxy)phenyl]-1-[2-[(3S)-3-[(dimethylamino)methyl]-1-piperidyl]-2-oxo-ethyl]pyrazol-4-yl]pyrazolo[1,5-a]pyrimidine-3-carboxamide], in assay [1], the EC50 was found to be 8.7 nM. The Ki came to 0.53 nM in assay [2] and 1.17 nM in assay [3].
